Laboratory results reported in patent US10800785B2, “Substituted pyrrolo[2,3-d]pyridazin-4-ones and pyrazolo[3,4-d]pyridazin-4-ones as protein kinase inhibitors” (Shanghai Fochon Pharmaceutical Co., Ltd., priority 2016, dated 2020).

What follows are molecules tested on DOHH2 cells (assay: Cell proliferation assay (MTS) in DOHH2 cells, mechanism-based assay for BTK inhibition). Conditions: Homo sapiens, DOHH-2, 120 h incubation, 5000 cells/well.
Text: Cell Proliferation Assays
MTS testing kit was purchased from Promega. The DMEM, Fetal bovine serum and Penicillin-Streptomycin were purchased from Gibco. Dimethyl sulfoxide (DMSO) was purchased from Sigma.
To investigate whether a compound is able to inhibit the activity of BTK in cells, a mechanism-based assay using DOHH2 (DSMZ catalog#: ACC47) and Mino (ATCC® Number CRL-3000™) cells was developed. In this assay, inhibition of BTK was detected by the inhibition of DOHH2 and Mino cell proliferations. DOHH2 or Mino cells were cultured in culture flasks to 40-80% confluence in RPMI-1640 plus 10% fetal bovine serum. C ells were collected and plated onto 96-well plates at desired cell density (DOHH2: 5000 cells/well; Mino: 10000 cells/well). Plates were incubated overnight at 37° C., with 5% CO2 to adhere. Compounds were added to the plates, and the final compound concentrations were 10000, 3333, 1111, […], 41, 14, 4.6 and 1.5 nM. Plates were placed at 37° C., with 5% CO2 for 120 h (DOHH2) or 72 h (Mino). 20 μl MTS/100 μl medium mixture solution were added to each well and the plates were incubated for exactly 2 hours. The reaction was stopped by adding 25 μl 10% SDS per well.
Select compounds prepared as described above were assayed according to the biological procedures described herein.

SMILES	IC50
C=CC(=O)N1CCC(c2cn(-c3ccc(Oc4ccccc4)cc3)c3c(N)n[nH]c(=O)c23)C1 (stereo not drawn) [Example 1, 3-(1-acryloylpyrrolidin-3-yl)-7-amino-1-(4-phenoxyphenyl)-1,5-dihydro-4H-pyrrolo[2,3-d]pyridazin-4-one]	36 nM
CC#CC(=O)N1CCC(c2cn(-c3ccc(Oc4ccccc4)cc3)c3c(N)n[nH]c(=O)c23)C1 (stereo not drawn) [Example 2, 7-amino-3-(1-(but-2-ynoyl)pyrrolidin-3-yl)-1-(4-phenoxyphenyl)-1,5-dihydro-4H-pyrrolo[2,3-d]pyridazin-4-one]	244 nM
C=CC(=O)N1CCC(c2cn(-c3ccc(Oc4c(F)cccc4F)cc3)c3c(N)n[nH]c(=O)c23)C1 (stereo not drawn) [Example 3, 3-(1-acryloylpyrrolidin-3-yl)-7-amino-1-(4-(2,6-difluorophenoxy)phenyl)-1,5-dihydro-4H-pyrrolo[2,3-d]pyridazin-4-one]	147 nM
CC#CC(=O)N1CCC(c2cn(-c3ccc(Oc4c(F)cccc4F)cc3)c3c(N)n[nH]c(=O)c23)C1 (stereo not drawn) [Example 4, 7-amino-3-(1-(but-2-ynoyl)pyrrolidin-3-yl)-1-(4-(2,6-difluorophenoxy)phenyl)-1,5-dihydro-4H-pyrrolo[2,3-d]pyridazin-4-one]	250 nM
C=CC(=O)N1CCC(c2nn(-c3ccc(Oc4ccccc4)cc3)c3c(N)n[nH]c(=O)c23)C1 (stereo not drawn) [Example 5, 3-(1-acryloylpyrrolidin-3-yl)-7-amino-1-(4-phenoxyphenyl)-1,5-dihydro-4H-pyrazolo[3,4-d]pyridazin-4-one]	25 nM
CC#CC(=O)N1CCC(c2nn(-c3ccc(Oc4ccccc4)cc3)c3c(N)n[nH]c(=O)c23)C1 (stereo not drawn) [Example 6, 7-amino-3-(1-(but-2-ynoyl)pyrrolidin-3-yl)-1-(4-phenoxyphenyl)-1,5-dihydro-4H-pyrazolo[3,4-d]pyridazin-4-one]	179 nM
C=CC(=O)N1CCC(c2nn(-c3ccc(Oc4c(F)cccc4F)cc3)c3c(N)n[nH]c(=O)c23)C1 (stereo not drawn) [Example 7, 3-(1-acryloylpyrrolidin-3-yl)-7-amino-1-(4-(2,6-difluorophenoxy)phenyl)-1,5-dihydro-4H-pyrazolo[3,4-d]pyridazin-4-one]	182 nM
CC#CC(=O)N1CCC(c2nn(-c3ccc(Oc4c(F)cccc4F)cc3)c3c(N)n[nH]c(=O)c23)C1 (stereo not drawn) [Example 8, 7-amino-3-(1-(but-2-ynoyl)pyrrolidin-3-yl)-1-(4-(2,6-difluorophenoxy)phenyl)-1,5-dihydro-4H-pyrazolo[3,4-d]pyridazin-4-one]	304 nM
C=CC(=O)N1CC[C@@H](c2cn(-c3ccc(Oc4ccccc4)cc3)c3c(N)n[nH]c(=O)c23)C1 [Example 9, (S)-3-(1-acryloylpyrrolidin-3-yl)-7-amino-1-(4-phenoxyphenyl)-1,5-dihydro-4H-pyrrolo[2,3-d]pyridazin-4-one]	32 nM
C=CC(=O)N1CC[C@H](c2cn(-c3ccc(Oc4ccccc4)cc3)c3c(N)n[nH]c(=O)c23)C1 [Example 10, (R)-3-(1-acryloylpyrrolidin-3-yl)-7-amino-1-(4-phenoxyphenyl)-1,5-dihydro-4H-pyrrolo[2,3-d]pyridazin-4-one]	20 nM
C=CC(=O)N1CCC[C@@H](c2cn(-c3ccc(Oc4ccccc4)cc3)c3c(N)n[nH]c(=O)c23)C1 [Example 11, (S)-3-(1-acryloylpiperidin-3-yl)-7-amino-1-(4-phenoxyphenyl)-1,5-dihydro-4H-pyrrolo[2,3-d]pyridazin-4-one]	40 nM
C=CC(=O)N1CCC[C@H](c2cn(-c3ccc(Oc4ccccc4)cc3)c3c(N)n[nH]c(=O)c23)C1 [Example 12, (R)-3-(1-acryloylpiperidin-3-yl)-7-amino-1-(4-phenoxyphenyl)-1,5-dihydro-4H-pyrrolo[2,3-d]pyridazin-4-one]	74 nM
C=CC(=O)N1CC[C@@H](c2nn(-c3ccc(Oc4ccccc4)cc3)c3c(N)n[nH]c(=O)c23)C1 [Example 13, (R)-3-(1-acryloylpyrrolidin-3-yl)-7-amino-1-(4-phenoxyphenyl)-1,5-dihydro-4H-pyrazolo[3,4-d]pyridazin-4-one]	107 nM
C=CC(=O)N1CC[C@H](c2nn(-c3ccc(Oc4ccccc4)cc3)c3c(N)n[nH]c(=O)c23)C1 [Example 14, (S)-3-(1-acryloylpyrrolidin-3-yl)-7-amino-1-(4-phenoxyphenyl)-1,5-dihydro-4H-pyrazolo[3,4-d]pyridazin-4-one]	50 nM
C=CC(=O)N1CCC[C@@H](c2nn(-c3ccc(Oc4ccccc4)cc3)c3c(N)n[nH]c(=O)c23)C1 [Example 15, (R)-3-(1-acryloylpiperidin-3-yl)-7-amino-1-(4-phenoxyphenyl)-1,5-dihydro-4H-pyrazolo[3,4-d]pyridazin-4-one]	40 nM
C=CC(=O)N1CCC[C@H](c2nn(-c3ccc(Oc4ccccc4)cc3)c3c(N)n[nH]c(=O)c23)C1 [Example 16, (S)-3-(1-acryloylpiperidin-3-yl)-7-amino-1-(4-phenoxyphenyl)-1,5-dihydro-4H-pyrazolo[3,4-d]pyridazin-4-one]	37 nM
C=CC(=O)N1CC[C@@H](c2cn(-c3ccc(Oc4ccccc4F)cc3)c3c(N)n[nH]c(=O)c23)C1 [Example 17, (S)-3-(1-acryloylpyrrolidin-3-yl)-7-amino-1-(4-(2-fluorophenoxy)phenyl)-1,5-dihydro-4H-pyrrolo[2,3-d]pyridazin-4-one]	21 nM
C=CC(=O)N1CC[C@@H](c2cn(-c3ccc(Oc4cccc(F)c4)cc3)c3c(N)n[nH]c(=O)c23)C1 [Example 18, (S)-3-(1-acryloylpyrrolidin-3-yl)-7-amino-1-(4-(3-fluorophenoxy)phenyl)-1,5-dihydro-4H-pyrrolo[2,3-d]pyridazin-4-one]	181 nM
C=CC(=O)N1CC[C@@H](c2cn(-c3ccc(Oc4c(F)cccc4F)cc3)c3c(N)n[nH]c(=O)c23)C1 [Example 21]	100 nM
C=CC(=O)N1CC[C@@H](c2cn(-c3ccc(Oc4cc(F)cc(F)c4)cc3)c3c(N)n[nH]c(=O)c23)C1 [Example 22, (S)-3-(1-acryloylpyrrolidin-3-yl)-7-amino-1-(4-(3,5-difluorophenoxy)phenyl)-1,5-dihydro-4H-pyrrolo[2,3-d]pyridazin-4-one]	86 nM
C=CC(=O)N1CC[C@H](c2cn(-c3ccc(Oc4ccccc4F)cc3)c3c(N)n[nH]c(=O)c23)C1 [Example 23, (R)-3-(1-acryloylpyrrolidin-3-yl)-7-amino-1-(4-(2-fluorophenoxy)phenyl)-1,5-dihydro-4H-pyrrolo[2,3-d]pyridazin-4-one]	42 nM
C=CC(=O)N1CC[C@H](c2cn(-c3ccc(Oc4cccc(F)c4)cc3)c3c(N)n[nH]c(=O)c23)C1 [Example 24, (R)-3-(1-acryloylpyrrolidin-3-yl)-7-amino-1-(4-(3-fluorophenoxy)phenyl)-1,5-dihydro-4H-pyrrolo[2,3-d]pyridazin-4-one]	373 nM
C=CC(=O)N1CC[C@H](c2cn(-c3ccc(Oc4cccc(F)c4F)cc3)c3c(N)n[nH]c(=O)c23)C1 [Example 26, (R)-3-(1-acryloylpyrrolidin-3-yl)-7-amino-1-(4-(2,3-difluorophenoxy)phenyl)-1,5-dihydro-4H-pyrrolo[2,3-d]pyridazin-4-one]	260 nM
C=CC(=O)N1CC[C@H](c2cn(-c3ccc(Oc4c(F)cccc4F)cc3)c3c(N)n[nH]c(=O)c23)C1 [Example 27, (R)-3-(1-acryloylpyrrolidin-3-yl)-7-amino-1-(4-(2,6-difluorophenoxy)phenyl)-1,5-dihydro-4H-pyrrolo[2,3-d]pyridazin-4-one]	47 nM
C=CC(=O)N1CCC[C@@H](c2cn(-c3ccc(Oc4ccccc4F)cc3)c3c(N)n[nH]c(=O)c23)C1 [Example 29, (S)-3-(1-acryloylpiperidin-3-yl)-7-amino-1-(4-(2-fluorophenoxy)phenyl)-1,5-dihydro-4H-pyrrolo [2,3-d]pyridazin-4-one]	46 nM
C=CC(=O)N1CCC[C@@H](c2cn(-c3ccc(Oc4cccc(F)c4)cc3)c3c(N)n[nH]c(=O)c23)C1 [Example 30, (S)-3-(1-acryloylpiperidin-3-yl)-7-amino-1-(4-(3-fluorophenoxy)phenyl)-1,5-dihydro-4H-pyrrolo [2,3-d]pyridazin-4-one]	129 nM
C=CC(=O)N1CCC[C@@H](c2cn(-c3ccc(Oc4ccc(F)cc4)cc3)c3c(N)n[nH]c(=O)c23)C1 [Example 31, (S)-3-(1-acryloylpiperidin-3-yl)-7-amino-1-(4-(4-fluorophenoxy)phenyl)-1,5-dihydro-4H-pyrrolo [2,3-d]pyridazin-4-one]	167 nM
C=CC(=O)N1CCC[C@@H](c2cn(-c3ccc(Oc4cccc(F)c4F)cc3)c3c(N)n[nH]c(=O)c23)C1 [Example 32, (S)-3-(1-acryloylpiperidin-3-yl)-7-amino-1-(4-(2,3-difluorophenoxy)phenyl)-1,5-dihydro-4H-pyrrolo[2,3-d]pyridazin-4-one]	58 nM
C=CC(=O)N1CCC[C@@H](c2cn(-c3ccc(Oc4c(F)cccc4F)cc3)c3c(N)n[nH]c(=O)c23)C1 [Example 33, (S)-3-(1-acryloylpiperidin-3-yl)-7-amino-1-(4-(2,6-difluorophenoxy)phenyl)-1,5-dihydro-4H-pyrrolo[2,3-d]pyridazin-4-one]	221 nM
C=CC(=O)N1CCC[C@@H](c2cn(-c3ccc(Oc4cc(F)cc(F)c4)cc3)c3c(N)n[nH]c(=O)c23)C1 [Example 34, (S)-3-(1-acryloylpiperidin-3-yl)-7-amino-1-(4-(3,5-difluorophenoxy)phenyl)-1,5-dihydro-4H-pyrrolo[2,3-d]pyridazin-4-one]	42 nM
